From patent US7820439B2, “In vitro generation of GABAergic neurons from pluripotent stem cells” (Reliance Life Sciences PVT Ltd., priority 2003, dated 2010) come the findings set out here.

The subject of the experiment is neuronal progenitor cells derived from murine ES cells. The experiment in a line: Differentiation of neuronal progenitor cells into GABAergic neurons in differentiation media containing Ara-C. Type of experiment: cell-based. Here is the method: The expanded neuronal progenitor cells were differentiated by culturing the cells in a differentiation media containing Neurobasal A medium (Gibco), FCS (10-20%) (HYCLONE), and B27 supplement (2-10%) (Gibco), but no β-FGF. Additionally, the differentiation media contained factors to enhance GABAergic neuron yield, preferably Ara-C (Sigma Chemical Co. USA). […] After 3 days of culture in the differentiation media containing Ara-C, the cells were grown in the same media without Ara-C for 8, 12, or 16 days. When the neuronal progenitor cells were cultured in differentiation media containing Ara-C for 3 days, and the cells were then grown in differentiation media without Ara-C for 16 days, at least about 60% of the neuronal progenitor cells differentiated into GABAergic neurons (FIG. 6).
The differentiated neuronal cell types generated according to the present disclosure were evaluated both by the overall morphology of the cells, as well as the phenotypes identified by immunoflourescence. […]
The cells were then incubated overnight at 4° C. with a primary antibody (antibody dilution was made in 1% BSA). […] The chamber slides were observed under fluorescence microscope to evaluate the immunopositive cells in the different stages of differentiation. […]

Take cytosine β-d-Arabino furanoside [Ara-C]: for the setting “Ara-C 20 ug/ml in differentiation media”, the “percentage of GABAergic neurons in the neuronal population derived from murine ES cells” value is “increased the percentage of GABAergic neurons”. The “neuronal progenitor cells differentiated into GABAergic neurons” value (differentiation media containing Ara-C for 3 days, then without Ara-C for 16 days (FIG. 6)) is “at least 60%”.
